From article PMC3383642 (Nature, 2012)
Values joined by “and” are separate entries in the source; they are usually repeats but may differ in a detail not shown here. Identical values can stand only once. Like-named read-outs stand apart in the source and are kept apart here.

How the values were obtained:
[1] = tested on: platelet aggregation in whole human blood; assay: Collagen-induced platelet aggregation in whole human blood; format: cell-based
[2] = target: HRH1 (histamine receptor H1) (Homo sapiens, UniProt P35367); assay: biochemical; format: binding
PTGS1 (ovine COX-1) = target: T1, PTGS1 (ovine COX-1) (Ovis aries, UniProt P05979); assay: biochemical
T1 sequence (P05979 25-600): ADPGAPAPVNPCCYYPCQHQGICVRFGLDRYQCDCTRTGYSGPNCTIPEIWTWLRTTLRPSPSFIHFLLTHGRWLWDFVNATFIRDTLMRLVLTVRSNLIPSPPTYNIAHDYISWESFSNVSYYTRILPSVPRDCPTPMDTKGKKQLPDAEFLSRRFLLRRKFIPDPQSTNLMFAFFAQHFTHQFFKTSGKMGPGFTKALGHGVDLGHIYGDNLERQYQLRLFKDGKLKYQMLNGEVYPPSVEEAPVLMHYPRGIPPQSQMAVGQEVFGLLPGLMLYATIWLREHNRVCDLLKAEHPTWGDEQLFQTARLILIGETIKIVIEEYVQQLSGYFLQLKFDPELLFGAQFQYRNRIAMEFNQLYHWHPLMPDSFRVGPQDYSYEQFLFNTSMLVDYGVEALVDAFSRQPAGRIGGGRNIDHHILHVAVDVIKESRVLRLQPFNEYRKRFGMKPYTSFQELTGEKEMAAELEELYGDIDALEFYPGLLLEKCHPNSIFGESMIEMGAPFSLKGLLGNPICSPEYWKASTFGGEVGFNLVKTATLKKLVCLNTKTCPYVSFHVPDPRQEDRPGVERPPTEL

[3] = human plasma, ref Thompson Reuters Integrity, cited from earlier work; for AUC [μM*h] (median): median of reported values
[4] = target: T2, PGR (progesterone receptor) (Homo sapiens, UniProt P06401); assay: biochemical
T2 sequence (P06401 679-913 limits assumed): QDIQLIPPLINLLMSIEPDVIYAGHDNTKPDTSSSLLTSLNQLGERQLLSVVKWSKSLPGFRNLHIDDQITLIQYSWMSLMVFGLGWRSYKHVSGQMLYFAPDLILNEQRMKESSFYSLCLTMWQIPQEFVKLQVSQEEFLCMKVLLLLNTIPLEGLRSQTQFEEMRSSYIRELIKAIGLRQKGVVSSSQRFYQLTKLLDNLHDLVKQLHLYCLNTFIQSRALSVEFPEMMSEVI

[5] = target: OPRM1 (opioid receptor, mu 1) (Homo sapiens, UniProt P35372); assay: OPRM1 functional agonist assay; format: cell-based; settings: Activity (μM) (median), target OPRM1; agonist per Figure S1E
[6] = Homo sapiens, Platelet, read-out: inhibition of platelet aggregation

HRH1 (histamine receptor H1), sequence (P35367 whole entry): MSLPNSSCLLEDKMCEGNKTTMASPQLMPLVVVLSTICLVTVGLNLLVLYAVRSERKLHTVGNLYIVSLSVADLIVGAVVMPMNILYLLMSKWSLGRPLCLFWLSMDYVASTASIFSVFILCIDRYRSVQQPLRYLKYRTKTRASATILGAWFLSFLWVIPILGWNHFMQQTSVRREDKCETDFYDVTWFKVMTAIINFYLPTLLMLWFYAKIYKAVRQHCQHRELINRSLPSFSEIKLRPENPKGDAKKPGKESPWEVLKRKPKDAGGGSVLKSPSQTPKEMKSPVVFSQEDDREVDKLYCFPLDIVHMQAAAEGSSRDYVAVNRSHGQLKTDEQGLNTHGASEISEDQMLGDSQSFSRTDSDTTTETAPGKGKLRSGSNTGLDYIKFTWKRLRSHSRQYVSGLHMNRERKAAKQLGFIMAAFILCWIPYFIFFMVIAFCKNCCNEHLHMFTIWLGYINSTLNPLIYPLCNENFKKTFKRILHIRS
OPRM1 (opioid receptor, mu 1), sequence (P35372 whole entry): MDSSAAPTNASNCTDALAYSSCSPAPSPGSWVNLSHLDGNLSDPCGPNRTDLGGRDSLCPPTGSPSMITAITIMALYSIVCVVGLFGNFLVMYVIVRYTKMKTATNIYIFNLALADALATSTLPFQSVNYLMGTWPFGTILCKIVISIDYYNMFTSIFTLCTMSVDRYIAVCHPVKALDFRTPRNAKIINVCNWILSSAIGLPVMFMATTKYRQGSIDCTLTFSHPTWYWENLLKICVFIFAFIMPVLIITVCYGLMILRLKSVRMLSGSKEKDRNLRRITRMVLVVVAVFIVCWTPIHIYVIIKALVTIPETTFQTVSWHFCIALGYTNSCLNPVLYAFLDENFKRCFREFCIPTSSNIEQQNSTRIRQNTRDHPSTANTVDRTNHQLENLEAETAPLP

With `CC(=O)Oc1ccccc1C(=O)O` [Acetylsalicylic acid] the inhibition at 250 µM [1, 6] was 42 to 48%.

`CCN(CC)CCCN(c1ccccc1)C1Cc2ccccc2C1` [Aprindine] showed an IC50 ([2]; IC50 [μM]) of 0.78 µM.

In the case of `COc1ccc(C(Cl)=C(c2ccc(OC)cc2)c2ccc(OC)cc2)cc1` [Chlorotrianisene], the “potency of inhibition of platelet aggregation in whole blood” value ([1]; 0.5, 5 and 50 μM, collagen 1 μg/mL, compared with indomethacin) is reported as “almost indistinguishable from that of indomethacin” and the IC50 (PTGS1 (ovine COX-1)) is reported as 160 nM.

For `CN(C)CCC=C1c2ccccc2C=Cc2ccccc21` [Cyclobenzaprine], the IC50 ([2]; Activity (μM) (median)) is listed as 0.02 µM, the IC50 ([2]; binding to histamine H1 receptor (HRH1), IC50) is listed as 0.021 µM and 0.02 µM and the “AUC [μM*h] (median)” value [3] is listed as 0.69 µM·h. For the same compound, the “AUC” value ([3]; range of reported values) was 0.16 to 4.10 µM·h, the Cmax ([3]; range of reported values) was 10 to 130 nM and the Cmax ([3]; read-out: median Cmax in plasma) was 61 nM.

In the case of `CN1CCN(C2=Nc3ccccc3Oc3ccc(Cl)cc32)CC1` [Loxapine], the “AUC [μM*h] (median)” value [3] is given as 0.21 µM·h, the “AUC” value ([3]; range of reported values) is given as 0.03 to 0.43 µM·h and the Cmax ([3]; range of reported values) is given as 20 to 410 nM.

For `C[C@H]1C[C@@H]2[C@H]([C@@H](O)C[C@@]3(C)[C@H]2CC[C@]3(O)C(=O)CO)[C@@]2(C)C=CC(=O)C=C12` [Methylprednisolone], the EC50 [4] is given as 1300 nM, the “AUC [μM*h] (median)” value [3] is given as 1.28 µM·h and the “AUC” value ([3]; range of reported values) is given as 0.09 to 10.76 µM·h. For the same compound, the Cmax ([3]; range of reported values) was 60 to 2110 nM.

In the case of `CC(Cc1ccccc1)NCCC(c1ccccc1)c1ccccc1` (centres unmarked) [Prenylamine], the IC50 ([2]; Activity (μM) (median)) is listed as 7.87 µM, the IC50 ([2]; IC50 [μM]) is listed as 7.9 µM and the “AUC” value ([3]; range of reported values) is listed as 0.12 µM·h. The Cmax ([3]; range of reported values) was 1200 nM.

For `CNC(=C[N+](=O)[O-])NCCSCc1ccc(CN(C)C)o1` [Ranitidine], the “AUC [μM*h] (median)” value [3] is given as 9.67 µM·h, the “AUC” value ([3]; range of reported values) is given as 5.66 to 121.90 µM·h and the Cmax ([3]; range of reported values) is given as 1140 to 9110 nM.

For `CC(NCCc1ccc(O)cc1)C(O)c1ccc(O)cc1` (centres unmarked) [Ritodrine], the “AUC [μM*h] (median)” value [3] is given as 0.11 µM·h, the “AUC” value ([3]; range of reported values) is given as 0.03 to 0.32 µM·h and the Cmax ([3]; range of reported values) is given as 10 to 150 nM. For the same compound, the EC50 [5] was 9.18 µM.

`COc1ccc2c(c1)c(CC(=O)O)c(C)n2C(=O)c1ccc(Cl)cc1` [indomethacin] showed an inhibition at 50 µM [1, 6] of 50%.
